Measured values from patent US20260373266A1, “PROTEIN DEGRADERS AND USES THEREOF” (KYMERA THERAPEUTICS, INC., priority 2022, published 2026).
Where two headings read alike, the source gives them in different places.

Legend:
[1] = molecular target: T1, DCAF1 WD40 domain (residues 1077-1390) (Homo sapiens, UniProt Q9Y4B6); test: DCAF1 binding assay by SPR (Biacore 8K+), DCAF1-3 KD; conditions: 25 °C
T1 construct: DCAF1 WD40 domain (residues 1077-1390)

[2] = tested on: BRD4 (N-terminally HiBiT-tagged, HEK293T cells); test: BRD4 degradation in HiBiT-BRD4-HEK293T cells; format: cell-based

T1 sequence (Q9Y4B6 1077-1390): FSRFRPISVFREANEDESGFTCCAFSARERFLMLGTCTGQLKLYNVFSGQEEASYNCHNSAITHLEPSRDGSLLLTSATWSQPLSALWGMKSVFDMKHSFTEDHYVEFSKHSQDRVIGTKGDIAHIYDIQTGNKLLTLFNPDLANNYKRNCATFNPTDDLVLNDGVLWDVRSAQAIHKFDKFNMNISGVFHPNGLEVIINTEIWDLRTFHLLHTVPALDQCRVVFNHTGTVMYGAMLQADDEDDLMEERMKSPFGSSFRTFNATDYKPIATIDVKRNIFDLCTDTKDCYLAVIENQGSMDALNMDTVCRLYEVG

Compound	Kd ([1]; read-out: DCAF1-3 SPR (KD)) [µM]	other results
Cc1sc2c(c1C)C(c1ccc(Cl)cc1)=N[C@@H](CC(=O)NCCOCCOCCOCCOCCCc1ccc(C(=O)c3[nH]cc(C(=O)N[C@@H](CC(N)=O)c4cccc(Cl)c4)c3-c3c(F)ccc(F)c3C)cc1)c1nnc(C)n1-2 [I-905, N—((S)-3-amino-1-(3-chlorophenyl)-3-oxopropyl)-5-(4-(1-((S)-4-(4-chlorophenyl)-2,3,9-trimethyl-6H-thieno[3,2-f][1,2,4]triazolo[4,3-a][1,4]diazepin-6-yl)-2-oxo-6,9,12,15-tetraoxa-3-azaoctadecan-18-yl)benzoyl)-4-(3,6-difluoro-2-methylphenyl)-1H-pyrrole-3-carboxamide]		Kd ([1]; DCAF1-3 SPR (KD)): < 10 µM; DC50 [2]: > 500 nM; Dmax [2]: B (70-90%)
Fc1cccc(N2CCC[C@H]3[C@@H]2CCN3c2cc(N3CCOCC3)ccn2)c1 [I-540]	> 200	
c1ccc2c(N3CCC[C@@H](Nc4cc(N5CCOCC5)ncn4)C3)nccc2c1 [I-390]	> 200	
NC(=O)C[C@@]1(c2cccc(Cl)c2)CN=C(c2c[nH]nc2-c2ccccc2F)N1 [I-191]	> 200	
Fc1cccc(N2CCNC(Cc3cc(N4CCOCC4)ccn3)C2)c1 (stereo not shown) [I-224]	> 200	
Fc1cccc(N2C[C@@H](F)C[C@@H](Nc3cc(N4CCOCC4)ccn3)C2)c1 [I-541]	100 to 200	
CCc1cccc([C@@H](CC(N)=O)NC(=O)c2cn[nH]c2-c2ccccc2F)c1 [I-639]	100 to 200	
c1cnc(N2CCC[C@@H](Nc3cc(N4CCOCC4)ccn3)C2)nc1 [I-69]	100 to 200	
N#Cc1ccc(N2CCC[C@@H](Nc3cc(N4CCOCC4)ccn3)C2)cc1 [I-774]	> 200	
CS(=O)(=O)CCC(=O)N1CCC[C@@H](Nc2cc(N3CCOCC3)ccn2)C1 [I-767]	> 200	
O=[N+]([O-])c1ccc(N2CCC[C@@H](n3ccc4c(N5CCCCC5)ccnc43)C2)cc1F [I-917]	< 10	
CCN1CCN(c2cc(N[C@@H]3CCCN(c4cccc(F)c4)C3)ncn2)CC1 [I-375]	> 200	
CCCN1CCN(c2ccnc(NC3CCCN(c4cccc(F)c4)C3)n2)CC1 (stereo not shown) [I-25]	> 200	
NC(=O)C[C@H](NC(=O)c1cn(Cc2ccccc2)nc1-c1ccccc1F)c1cccc(Cl)c1 [I-495]	> 200	
Cc1cccc(F)c1-c1[nH]ncc1C(=O)N[C@H](CC(N)=O)c1cc(Cl)cc(Cl)c1 [I-735]	100 to 200	
NCCCCCCCCCCCCCCCCCCCCC1CCN(c2ccnc(N3CC[C@@H]4[C@H]3CCCN4c3cccc(F)c3)c2)CC1 [I-745]	> 200	
OC[C@@H]1[C@H](Nc2cc(N3CCOCC3)ccn2)CCCN1c1cccc(F)c1 [I-279]	> 200	
COCCOCC[C@@H]1CCCN(c2ccnc(N3CC[C@@H]4[C@H]3CCCN4c3cccc(F)c3)c2)C1 [I-704]	> 200	

Compound	Kd ([1]; read-out: DCAF1-3 SPR (KD)) [µM]	other results
O=C(N[C@@H](c1cnoc1)c1cccc(Cl)c1)c1c[nH]nc1-c1ccccc1F [I-233]	> 200	
c1cc(N2CCC[C@@H](Nc3cc(N4CCOCC4)ncn3)C2)c2ccncc2c1 [I-394]	> 200	
Fc1cccc(N2C3CC[C@H]2CC[C@H]3Nc2cc(N3CCOCC3)ccn2)c1 (stereo in doubt) [I-80]	> 200	
Cc1sc2c(c1C)C(c1ccc(Cl)cc1)=N[C@@H](CC(=O)NCCCCCCCCCCCCC(=O)c1[nH]cc(C(=O)C[C@@H](CC(N)=O)c3cccc(Cl)c3)c1-c1ccccc1F)c1nnc(C)n1-2 [I-892]	> 200	
NC(=O)C[C@H](NC(=O)c1cn[nH]c1-c1ccccc1F)c1ccccc1C(N)=O [I-352]	> 200	
O=C(Nc1nc2c(s1)CCCC2)[C@@H]1CCCN(c2cccc(F)c2)C1 [I-669]	> 200	
NC(=O)C[C@@](NC(=O)c1c[nH]nc1-c1ccccc1F)(c1ccccc1)c1cccc(Cl)c1 [I-256]	> 200	
CC1CCN(c2ccnc(N[C@@H]3CCCN(c4cccc(F)c4)C3)c2)CC1 [I-571]	10 to 100	
NC(=O)C[C@@]1(NC(=O)c2c[nH]nc2-c2ccccc2F)CCc2c(Cl)cccc21 [I-205]	> 200	
NC[C@@H]1CCN(c2cccc(F)c2)C[C@H]1Nc1cc(N2CCCCC2)ccn1 [I-1044]	10 to 100	
Fc1cccc(N2CCC[C@@H](Nc3cc(N4CCOCC4)[nH]n3)C2)c1 [I-329]	> 200	
NC(=O)C[C@H](NC(=O)c1cnc(N)cc1-c1ccccc1F)c1cccc(Cl)c1 [I-589]	> 200	
CCN1CCN(c2ccnc(NC3CCCN(c4cccc(F)c4)C3)n2)CC1 (stereo not shown) [I-24]	> 200	
Cc1sc2c(c1C)C(c1ccc(Cl)cc1)=N[C@@H](CC(=O)NCCCCCCCCCCCCCCC1CCN(c3ccnc(N4CC[C@@H]5[C@H]4CCCN5c4cccc(F)c4)c3)CC1)c1nnc(C)n1-2 [I-902]	> 200	
c1cc(N2CCOCC2)cc(N[C@@H]2CCCN(c3ccc(C4CC4)cc3)C2)n1 [I-507]	> 200	
NC(=O)CCN(c1cc(N2CCOCC2)ccn1)[C@@H]1CCCN(c2cccc(F)c2)C1 [I-291]	> 200	
NC(=O)C[C@H](NC(=O)c1[nH]ccc1-c1ccccc1F)c1cccc(Cl)c1 [I-114]	10 to 100	
CCCCN(c1nccc(N2CCOCC2)n1)[C@@H]1CCCN(c2cccc(F)c2)C1 [I-43]		Kd ([1]; DCAF1-3 SPR (KD)): > 200 µM

Further lines, with some results ahead:

Kd ([1]; read-out: DCAF1-3 SPR (KD)) [µM]	Compound	other results
< 10	Cc1sc2c(c1C)C(c1ccc(Cl)cc1)=N[C@@H](CC(=O)NCCOCCOCCOCCOCCOCCCc1ccc(C(=O)c3[nH]cc(C(=O)N[C@@H](CC(N)=O)c4cccc(Cl)c4)c3-c3c(F)ccc(F)c3C)cc1)c1nnc(C)n1-2 [I-907]	DC50 [2]: 10 to 100 nM; Dmax [2]: B (70-90%)
10 to 100	COCCN1CCC(c2ccnc(N[C@@H]3CCCN(c4cccc(F)c4)C3)c2)CC1 [I-99]	
< 10	COCCC(=O)c1[nH]cc(C(=O)N[C@@H](CC(N)=O)c2cccc(Cl)c2)c1-c1ccccc1F [I-524]	
10 to 100	Oc1ccc(F)cc1N1CCC[C@@H]2[C@H]1CCN2c1cc(N2CCCCC2)ccn1 [I-812]	
10 to 100	Oc1ccc(N2CCC[C@@H]3[C@H]2CCN3c2cc(N3CC4CC(C4)C3)ccn2)cc1 [I-709]	
< 10	Fc1cccc(N2CCC[C@@H](Nc3cc(N4CC5CCC(C5)C4)ccn3)C2)c1 [I-553]	
< 10	Cc1sc2c(c1C)C(c1ccc(Cl)cc1)=N[C@@H](CC(=O)NCCOCCOCCOCCOCCOCCC1CCN(c3ccnc(N4CC[C@@H]5[C@H]4CCCN5c4cccc(F)c4)c3)CC1)c1nnc(C)n1-2 [I-891]	
10 to 100	Nc1ccc(N[C@@H]2CCCN(c3cccc(F)c3)C2)cc1C1CCCCC1 [I-930]	
< 10	c1cc2ccc(N3CCC[C@@H](Nc4cncc(N5CCOCC5)c4)C3)cc2cn1 [I-366]	
10 to 100	Fc1cccc(N2CC[C@@H](Nc3cc(N4CCOCC4)ccn3)C2)c1 [I-198]	
< 10	Oc1ccc(N2CCC[C@@H](Nc3cc(N4CCCCC4)ccn3)C2)cc1 [I-593]	
< 10	COc1ncc(N[C@@H]2CCCN(c3cccc(F)c3)C2)cc1N1CCOCC1 [I-558]	
10 to 100	NC[C@@H]1C[C@H](Nc2cc(N3CCCCC3)ccn2)CN(c2cccc(F)c2)C1 [I-1042]	
10 to 100	NC(=O)C[C@H](NC(=O)c1c[nH]nc1-c1cc(C(=O)O)ccc1F)c1cccc(Cl)c1 [I-523]	
10 to 100	FC(F)(F)Oc1ccc(N2CCC[C@@H](Nc3cc(N4CCOCC4)ccn3)C2)nc1 [I-426]	
10 to 100	Cc1ccc(N2CCC[C@@H](Nc3cc(N4CCOCC4)ccn3)C2)cc1 [I-509]	
10 to 100	c1ccc(-c2cc(N3CCC[C@@H](Nc4cc(N5CCOCC5)ccn4)C3)ccn2)nc1 [I-437]	
10 to 100	Oc1ccc(N2CCC[C@@H](Nc3cncc(N4CCOCC4)c3)C2)cc1 [I-567]	
10 to 100	NC(=O)C[C@H](NC(=O)c1cn[nH]c1-c1ccc(C(N)=O)cc1)c1cccc(Cl)c1 [I-351]	
10 to 100	CN(c1ccnc(N[C@@H]2CCCN(c3cccc(F)c3)C2)c1)C1CCCCC1 [I-578]	
< 10	Cc1sc2c(c1C)C(c1ccc(Cl)cc1)=N[C@@H](CC(=O)NCCOCCOCCOCCOCCCc1ccc(C(=O)c3c(-c4c(F)ccc(F)c4C)c(C(=O)N[C@@H](CS(C)(=O)=O)c4cccc(Cl)c4)cn3C)cc1)c1nnc(C)n1-2 [I-915]	
< 10	Cc1sc2c(c1C)C(c1ccc(Cl)cc1)=N[C@@H](CC(=O)NCCOCCOCCOCCOCCCc1ccc(C(=O)c3[nH]cc(C(=O)N[C@@H](CC(=O)N4CCN(C(=O)OCc5ccccc5)CC4)c4cccc(Cl)c4)c3-c3c(F)ccc(F)c3C)cc1)c1cnc(C)n1-2 [I-914]	
10 to 100	Oc1ccc(C2CCCCC2)cc1N[C@@H]1CCCN(c2cccc(F)c2)C1 [I-921]	
< 10	N#Cc1cccc(-c2[nH]ncc2C(=O)N[C@@H](CC(N)=O)c2cccc(Cl)c2)c1 [I-337]	
< 10	Cc1cccc(F)c1-c1c(C(=O)N[C@@H](CC(N)=O)c2cccc(Cl)c2)c[nH]c1C(=O)c1ncccn1 [I-648]	
< 10	NC(=O)C[C@H](NC(=O)c1cn[nH]c1-c1cccc(F)c1)c1cccc(Cl)c1 [I-115]	
< 10	COCCC1C2CCC1CN(c1ccnc(N[C@@H]3CCCN(c4cccc(F)c4)C3)c1)C2 (stereo partly shown) [I-654]	
